According to paper PMC7316778 (Nature Communications, 2020):
Values joined by “and” are separate entries in the source; they are usually repeats but may differ in a detail not shown here. Identical values can stand only once.

Experiments:
[1] = tested on: FES^S700C HL-60 neutrophils; experiment: Phagocytosis assay with GFP-expressing E. coli; type: cell-based, human; details: for GFP-positive cells (%): Sup. Fig. 15a; for Mean GFP intensity (RFU): Sup. Fig. 15b
Method: HL-60 cells were differentiated to neutrophils as described above. Cells were counted and centrifuged (200g, 5 min), followed by resuspension in growth medium without antibiotics. Cells were incubated with vehicle or inhibitor (from 1000x concentrated stocks in DMSO) for 1 h at 37 °C prior to infection (1×10^6 cells in 900 µL in 12-well plate). Meanwhile, E. coli B834(DE3) constitutively expressing GFP^A206K were grown in LB medium to an OD600 of 0.4–1.0, after which bacteria were centrifuged (2000g, 5 min), washed and resuspended in PBS to appropriate density. Neutrophils were infected by addition of bacteria at multiplicity of infection (MOI) of 30 unless stated otherwise. Cells were then incubated for 1 h at 37 °C unless stated otherwise, after which cells were resuspended and transferred to Eppendorf tubes, washed in FACS buffer (1 mL, 500g, 3 min) and fixed in 1% PFA in PBS (15 min, 4 °C, in the dark). Samples were further processed as described above.
Events (generally 20,000 per condition) were gated by forward and side scatter (cells), side scatter area (singlets) and the percentage of GFP-positive cells and GFP mean fluorescence intensity (MFI) were determined based on background fluorescence for non-infected cells. The GREEN-B channel (525/30 filter) was used to detect GFP.

FES^WT = molecular target: T1, FES^WT (Homo sapiens, UniProt P07332); experiment: In vitro TR-FRET kinase assay; type: biochemical; details: for Residual activity (%): FES WT, mean, n=3
T1 construct: human FES cDNA encoding residues 448–822 or human FER cDNA encoding residues 448–820 was amplified by PCR; made in house; host or cells: E. coli BL21(DE3), co-expressing YopH phosphatase
Method: All measurements were performed in triplicate.

FER^WT = FER^WT (Homo sapiens, UniProt P16591); experiment: In vitro TR-FRET kinase assay
Chain of FER^WT (P16591 448-820): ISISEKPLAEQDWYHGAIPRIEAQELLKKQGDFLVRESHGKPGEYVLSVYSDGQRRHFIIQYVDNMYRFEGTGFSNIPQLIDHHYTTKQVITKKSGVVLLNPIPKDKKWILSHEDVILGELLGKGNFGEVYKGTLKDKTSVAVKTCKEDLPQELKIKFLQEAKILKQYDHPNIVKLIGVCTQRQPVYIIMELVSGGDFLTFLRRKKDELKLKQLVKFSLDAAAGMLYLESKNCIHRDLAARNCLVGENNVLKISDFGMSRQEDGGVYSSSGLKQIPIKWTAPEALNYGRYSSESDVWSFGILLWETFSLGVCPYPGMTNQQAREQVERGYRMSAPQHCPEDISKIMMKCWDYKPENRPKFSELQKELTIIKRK

T1 sequence (P07332 448-822): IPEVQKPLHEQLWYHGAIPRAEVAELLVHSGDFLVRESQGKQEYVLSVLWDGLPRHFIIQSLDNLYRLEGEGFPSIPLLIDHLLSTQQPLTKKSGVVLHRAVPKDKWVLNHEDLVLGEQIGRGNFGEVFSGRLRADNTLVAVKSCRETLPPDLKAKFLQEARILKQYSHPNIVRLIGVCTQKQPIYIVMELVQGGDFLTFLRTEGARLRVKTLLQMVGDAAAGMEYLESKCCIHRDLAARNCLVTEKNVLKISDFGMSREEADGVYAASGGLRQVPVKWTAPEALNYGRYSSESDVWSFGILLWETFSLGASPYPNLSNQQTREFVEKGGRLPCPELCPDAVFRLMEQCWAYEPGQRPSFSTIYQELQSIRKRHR

`COc1ccc2c(c1)CC[C@@H]1[C@@H]2CC[C@]2(C)[C@@H](NCCCCCCN3C(=O)C=CC3=O)CC[C@@H]12` [Compound U-73122, U-73122] was tested, and the Phagocytic index ([1]; Figure 7i, replicates) was 64.8265 and 82.4025 and 81.0921 and 67.7147 and 64.5235.
`C=C1[C@@H](C)[C@H]2[C@H](Cc3ccccc3)NC(=O)[C@]23[C@H](OC(C)=O)/C=C/[C@@](C)(O)C(=O)[C@@H](C)C/C=C/[C@H]3[C@@H]1O` [Cytochalasin D] was tested, and the Phagocytic index ([1]; Figure 7i, replicates) was 55.7493 and 57.2763 and 70.3881 and 51.4867 and 48.2922, the Phagocytic index ([1]; MOI 0, Sup. Fig. 15d) was 8.168 and 11.9502 and 9.328 and the Phagocytic index ([1]; MOI 5, Sup. Fig. 15d) was 77.8958 and 83.9457 and 75.261. The Phagocytic index ([1]; MOI 10, Sup. Fig. 15d) was 109.345 and 104.624 and 85.7245, the Phagocytic index ([1]; MOI 30, Sup. Fig. 15d) was 212.699 and 198.296 and 185.432 and the Phagocytic index ([1]; MOI 50, Sup. Fig. 15d) was 255.429 and 327.443 and 225.712. The “GFP-positive cells (%)” value ([1]; infection time 0 min) was 14.1178% and 22.6106% and 27.9257%, the “Mean GFP intensity (RFU)” value ([1]; infection time 0 min) was 245.785 RFU and 271.934 RFU and 267.216 RFU and the “GFP-positive cells (%)” value ([1]; infection time 15 min) was 27.3639% and 36.225% and 38.7869%. The “Mean GFP intensity (RFU)” value ([1]; infection time 15 min) was 283.565 RFU and 293.305 RFU and 282.675 RFU, the Phagocytic index ([1]; infection time 15 min, Sup. Fig. 15c) was 77.5947 and 106.25 and 109.641 and the “GFP-positive cells (%)” value ([1]; infection time 30 min) was 33.857% and 41.6734% and 39.0238%. For the same compound, the “Mean GFP intensity (RFU)” value ([1]; infection time 30 min) was 270.952 RFU and 276.074 RFU and 268.61 RFU, the Phagocytic index ([1]; infection time 30 min, Sup. Fig. 15c) was 91.7362 and 115.049 and 104.822 and the “GFP-positive cells (%)” value ([1]; infection time 60 min) was 50.1058% and 58.9504% and 42.1365%. The “Mean GFP intensity (RFU)” value ([1]; infection time 60 min) was 234.066 RFU and 238.429 RFU and 237.207 RFU and the Phagocytic index ([1]; infection time 60 min, Sup. Fig. 15c) was 117.281 and 140.555 and 99.951.
In the case of `C=CC(=O)Nc1ccccc1Nc1nc(Nc2ccccc2OC)ncc1Cl` [Compound 4], the IC50 (FES^WT; TR-FRET assay, 5 µM ATP, n = 3, read-out: pIC50 FES^WT (converted)) is reported as 2000 nM and the IC50 (FER^WT) is reported as 200 nM.
For `COc1ccccc1Nc1ncc(Cl)c(Nc2ccccc2S(=O)(=O)C(C)C)n1` [Supplementary Figure 1c], the “Residual activity (%)” value (FES^WT; log[inhibitor] (M) = -5) was 3.135%, the “Residual activity (%)” value (FES^WT; log[inhibitor] (M) = -5.52288) was 1.274% and the “Residual activity (%)” value (FES^WT; log[inhibitor] (M) = -6) was 0.9673%. For the same compound, the “Residual activity (%)” value (FES^WT; log[inhibitor] (M) = -6.52288) was 3.912%, the “Residual activity (%)” value (FES^WT; log[inhibitor] (M) = -7) was 25.313% and the “Residual activity (%)” value (FES^WT; log[inhibitor] (M) = -7.52288) was 69.4661%. For the same compound, the “Residual activity (%)” value (FES^WT; log[inhibitor] (M) = -8) was 80.7219%, the “Residual activity (%)” value (FES^WT; log[inhibitor] (M) = -8.52288) was 93.5112% and the “Residual activity (%)” value (FES^WT; log[inhibitor] (M) = -9) was 92.1668%. The “Residual activity (%)” value (FES^WT; log[inhibitor] (M) = -9.52288) was 93.0906%, the “Residual activity (%)” value (FES^WT; log[inhibitor] (M) = -10) was 84.5762% and the “Residual activity (%)” value (FES^WT; log[inhibitor] (M) = -10.5229) was 85.1733%. For the same compound, the “Residual activity (%)” value (FES^WT; log[inhibitor] (M) = -11) was 101.85%.
With `Nc1ncnc2c1ncn2[C@@H]1O[C@H](COP(=O)(O)OP(=O)(O)OP(=O)(O)O)[C@@H](O)[C@H]1O` [ATP] the Km (FES^WT; FES^WT, TR-FRET, 60 min, read-out: ATP KM) was 1.9 µM and the Km (FER^WT; read-out: ATP KM, FER^WT) was 11 µM.
`C=CC(=O)Nc1ccccc1Nc1nc(Nc2ccccc2OC)ncc1Cl` [Supplementary Figure 8d] was tested, and the “Residual activity (%) WT Mean” value (FER^WT; log[inhibitor] (M) -5) was 4.829%, the “Residual activity (%) WT Mean” value (FER^WT; log[inhibitor] (M) -5.52288) was 6.417% and the “Residual activity (%) WT Mean” value (FER^WT; log[inhibitor] (M) -6) was 19.305%. The “Residual activity (%) WT Mean” value (FER^WT; log[inhibitor] (M) -6.52288) was 38.3519%, the “Residual activity (%) WT Mean” value (FER^WT; log[inhibitor] (M) -7) was 71.19% and the “Residual activity (%) WT Mean” value (FER^WT; log[inhibitor] (M) -7.52288) was 87.6084%. For the same compound, the “Residual activity (%) WT Mean” value (FER^WT; log[inhibitor] (M) -8) was 99.295%, the “Residual activity (%) WT Mean” value (FER^WT; log[inhibitor] (M) -8.52288) was 98.6881% and the “Residual activity (%) WT Mean” value (FER^WT; log[inhibitor] (M) -9) was 106.616%. The “Residual activity (%) WT Mean” value (FER^WT; log[inhibitor] (M) -9.52288) was 102.334%, the “Residual activity (%) WT Mean” value (FER^WT; log[inhibitor] (M) -10) was 107.184% and the “Residual activity (%) WT Mean” value (FER^WT; log[inhibitor] (M) -10.5229) was 102.376%. For the same compound, the “Residual activity (%) WT Mean” value (FER^WT; log[inhibitor] (M) -11) was 116.944%.
In the case of `COc1ccccc1Nc1ncc(Cl)c(Nc2ccccc2S(=O)(=O)C(C)C)n1` [Supplementary Figure 8c], the “Residual activity (%) WT Mean” value (FER^WT; log[inhibitor] (M) -5) is reported as 0.06517%, the “Residual activity (%) WT Mean” value (FER^WT; log[inhibitor] (M) -5.52288) is reported as 0.1492% and the “Residual activity (%) WT Mean” value (FER^WT; log[inhibitor] (M) -6) is reported as -0.06836%. For the same compound, the “Residual activity (%) WT Mean” value (FER^WT; log[inhibitor] (M) -6.52288) was 0.8273%, the “Residual activity (%) WT Mean” value (FER^WT; log[inhibitor] (M) -7) was 4.343% and the “Residual activity (%) WT Mean” value (FER^WT; log[inhibitor] (M) -7.52288) was 12.0728%. The “Residual activity (%) WT Mean” value (FER^WT; log[inhibitor] (M) -8) was 31.4398%, the “Residual activity (%) WT Mean” value (FER^WT; log[inhibitor] (M) -8.52288) was 59.2785% and the “Residual activity (%) WT Mean” value (FER^WT; log[inhibitor] (M) -9) was 83.3824%. The “Residual activity (%) WT Mean” value (FER^WT; log[inhibitor] (M) -9.52288) was 101.278%, the “Residual activity (%) WT Mean” value (FER^WT; log[inhibitor] (M) -10) was 106.348% and the “Residual activity (%) WT Mean” value (FER^WT; log[inhibitor] (M) -10.5229) was 105.352%. The “Residual activity (%) WT Mean” value (FER^WT; log[inhibitor] (M) -11) was 108.85%.
